Results on 94 compounds are retold here after a melting point compilation (Tetko et al.; mined from patent text by program, amines drawn as free bases though some values may be those of a salt).

Bounds are passed on as bounds.

For `CC(C)n1nc(-c2cnc(N)nc2-c2ccccc2Cl)ccc1=O`, the melting point (usually the temperature of the solid-liquid transition) lay in the range of 227 to 228 °C.

In turn, `O=C(Cc1ccccc1)c1ccc(SC(F)F)cc1` returned a melting point of 42 to 45 °C.

As for `CCOC(=O)C(C)Oc1ccc(N(C)c2ncnc3cc(Cl)ccc23)cc1` (centres undefined), the melting point came to 92 °C.

Compound `Cc1cc(C)cc(Oc2c(CCl)c(C)[nH]c(=O)c2I)c1` came in with a melting point of 256 to 258 °C.

`CCOC(=O)c1ncn2c1CNC(=O)c1sccc1-2` registered a melting point of 263 to 264 °C.

Turning to `Cc1n[nH]c(C)c1-c1cccc(OC2SCC(O)C(O)C2O)c1` (centres undefined), the melting point was determined as 213 °C.

In turn, `CONS(=O)(=O)c1ccccc1Cl` returned a melting point of 92.5 to 94 °C.

Compound `CCc1c(C(=O)OC(C)C)ncc2[nH]c3ccc4nc(C)sc4c3c12` came in with a melting point of 239 to 240 °C.

As for `CC12CCC(O)CC1=CCC1C2CCC2(C)C(=C(F)CO)CCC12` (centres undefined), the melting point lay in the range of 198 to 203 °C.

Turning to `O=c1[nH]c(C(F)(F)F)nc2ccccc12`, the melting point was determined as 220 °C.

Turning to `COc1cc(C(=O)N2Cc3ccccc3Cc3ccccc32)ccc1NC(=O)C1(C)C=CC=CC1` (centres undefined), the melting point was 209 to 210 °C.

For `CN1C(=O)C(NC(=O)CC2CCCCC2)N=C(N2CCCCCC2)c2ccccc21` (centres undefined), the melting point lay within 205 to 207 °C.

Take `O=C(O)c1cccc2cc3ccccc3nc12`: the melting point was in the range of 202 to 204 °C.

Regarding `COc1cc(C(=O)CS(C)(=O)=O)cc(OC)c1N(C)C`, the melting point is 111 to 112 °C.

`CCOc1cc2c(cc1OCC)-c1c(OCC)c(OCC)cc3c1C(C2)N(C)CC3O` (centres undefined): the melting point was 140 to 142 °C.

Compound `Cc1[nH]c(/C=C2\C(=O)Nc3cc(NC(=O)c4cccn(-c5ccc(F)cc5)c4=O)ccc32)c(C)c1CC(=O)O` yielded a melting point greater than 300 °C.

`COC(=O)C#Cc1cccc(C(=O)OC)c1` gave a melting point of 96 to 97 °C.

With `COc1cccc(-n2nc(Cl)cc2-c2ccc(S(C)(=O)=O)cc2)c1`, the melting point was 103 to 104 °C.

As to `O=C(O)c1ccc(F)s1`, the melting point is 140 to 142 °C.

In the case of `COc1cc(C(=O)c2ccccc2F)ccc1OCc1ccccc1`, the melting point was 118 to 120 °C.

In turn, `O=C(O)c1cn(-c2cccnc2)cn1` had a melting point of 265 to 266 °C.

With `CC(=O)NCc1ccc(CO)cc1[N+](=O)[O-]`, the melting point is 133 to 135 °C.

On to `N#Cc1cc2c(cn1)CCCC2`, for which the melting point was in the range of 56 to 59 °C.

In turn, `CNc1nc(Cl)nc2c(SC)ncnc12` returned a melting point of 233 to 234 °C.

Compound `FC(F)(F)C(/C=C/c1ccc(CNc2ccccn2)c(Cl)c1)c1cc(Cl)c(Cl)c(Cl)c1` (centres undefined) displayed a melting point of 140 to 142 °C.

Compound `CCCCNC(=O)N(Cc1ccccn1)C1CCN(c2ncnc3cc(OC)c(OC)cc23)CC1` came in with a melting point of 162 to 164 °C.

In turn, `CNC(=O)c1cccc(NC(=O)COc2cccc3ccccc23)c1` yielded a melting point of 194 °C.

`CC(C)c1ccc2nc3ccc(C(=O)OCCCc4cccnc4)cc3c(=O)n2c1`: the melting point lay within 111 to 112 °C.

`CCCCOC1CCC(=O)N1` (centres undefined) gave a melting point of 36 to 38 °C.

`COc1ccc(-c2csc(Nc3cc(C)ccn3)n2)cc1OC` showed a melting point of 211 to 213 °C.

In turn, `CCOc1nc(C)nc(N)n1` came in with a melting point of 172 to 174 °C.

Take `c1ccc(-n2c(C3=NCCN3)cc3ccccc32)cc1`: the melting point was 180 to 182 °C.

The compound `CSC(=NC#N)N(C)N` returned a melting point of 69 to 71 °C.

As to `O=S1(=O)c2cccc3cccc(c23)N1CCCN1CCN(c2ccccn2)CC1`, the melting point came to 101 °C.

Compound `COCNC(=O)ON=C1SCOC1C` (centres undefined) gave a melting point of 78 to 79 °C.

Compound `CCOCc1nc2c(N)nc3ccccc3c2n1CC1CC(c2ccccc2)N(C)O1` (centres undefined) returned a melting point of 162 to 163 °C.

`CNC(=O)c1sc(C(C)(C)C)cc1N` gave a melting point of 230 to 231 °C.

Regarding `Cc1ncsc1C(C)(O)c1ccco1` (centres undefined), the melting point was in the range of 127 to 128 °C.

`O[C@@H]1COC[C@H]1Oc1nc(N2CCNCC2)nc2ccccc12` (relative stereo) displayed a melting point of 148 to 154 °C.

Compound `CC(=O)SCCN1C(=O)c2ccccc2C1=O` registered a melting point of 112 to 114 °C.

As to `O=C1c2ccccc2CN1CCSc1ccncc1`, the melting point fell in the range of 86 to 87 °C.

Regarding `COC(=O)CCCc1cc2nc(Cl)ccc2n1S(=O)(=O)c1cccc2cccnc12`, the melting point was found to be 64 °C.

Compound `ClCc1coc(C2=Cc3ccccc3CC2)n1` showed a melting point of 73 to 74 °C.

The compound `Cc1ncnc(O)c1Cl` came in with a melting point of 250 to 251 °C.

The compound `NC(N)=NC(=O)Cn1cccc1` returned a melting point of 214 °C.

Consider `CN(CCc1cccc(OCc2ccccc2)c1)c1cnc(-c2ccccc2)c(-c2ccccc2)n1`, for which the melting point lay within 78 to 78.5 °C.

`CNC(=O)c1cccc(NC(=O)Cc2cc(OC)cc(OC)c2)c1` gave a melting point of 146 to 147 °C.

As for `C#CCOC(=O)N1c2ccccc2C(=O)Nc2cccnc21`, the melting point was determined as 213 °C.

The compound `Cc1ccc(C(=O)c2ccc(C(C)C(=O)O)cc2)s1` (centres undefined) yielded a melting point of 93.7 °C.

Regarding `COc1cc(NS(=O)(=O)c2ccc(Cl)cc2)c(C(=O)Nc2ccc(S(=O)(=O)N3CCSCC3)cc2)cc1OC`, the melting point was in the range of 216 to 219 °C.

As to `CCOC(=O)CCc1cn(-c2ccc(Br)cn2)nc1C(C)(C)C`, the melting point is 94 to 95 °C.

The compound `CCOC(=O)C(=CNC1CC1)C(=O)c1c(F)c(OC(F)F)c(F)c(F)c1[N+](=O)[O-]` registered a melting point of 105 to 106 °C.

As for `Cc1cc(F)c(Cl)cc1[N+](=O)[O-]`, the melting point was in the range of 57 to 58 °C.

`CSc1ccc(-c2c(C)nnc(Cl)c2-c2ncc(Cl)cc2Cl)nc1` displayed a melting point of 163 °C.

`O=c1oc(-c2ccc(OCCc3ccccc3)cc2)cc(O)c1SCCc1ccccc1` showed a melting point of 103 to 106 °C.

In turn, `CCOC(=O)C(C)c1cc(C(C)(C)C)c(O)c(C(C)(C)C)c1` (centres undefined) had a melting point of 54 to 56 °C.

For `COCc1c(OCc2ccccc2)ccc2c1CCCC2=O`, the melting point lay in the range of 55 to 56 °C.

For `COCC(=O)OCc1c(C)n(Cc2ccccc2)c2c(OCc3ccc(F)cc3)nncc12`, the melting point was in the range of 119 to 121 °C.

Compound `Oc1ccc(CCCc2ccc(O)cc2O)cc1` displayed a melting point of 92 to 93 °C.

Turning to `CC(C)(CC(O)(Cn1cc(Br)c(=O)c2sccc21)C(F)(F)F)c1cccc2c1OCO2` (centres undefined), the melting point fell in the range of 197 to 198 °C.

As to `COc1cc(I)c(Cl)cc1C(=O)N1Cc2cccn2Cc2ccccc21`, the melting point was in the range of 92 to 98 °C.

`COCCc1nc2c(N)nc3ccccc3c2n1CCOCCNS(C)(=O)=O` showed a melting point of 114 to 117 °C.

`CCOC(=O)c1nnc2n1-c1sc(Cl)cc1C(c1ccccc1Cl)=NC2`: the melting point fell in the range of 180 to 182 °C.

`Cc1ccccc1Nc1nc(N)nc2c(C)cccc12` had a melting point of 118 to 120 °C.

Compound `CS(=O)(=O)CCOC(=O)NCCSc1ccc2nccn2n1` yielded a melting point of 91 to 93 °C.

Regarding `COc1ccc(C#N)cc1C=O`, the melting point is 115 to 118 °C.

Compound `Sc1cccc(CN2CCCCC2)c1` yielded a melting point of 121 to 123 °C.

In turn, `CC(C)n1c(C=O)c(-c2ccc(F)cc2)c(-c2ccc(F)cc2)c1C(=O)Nc1ccc(S(N)(=O)=O)cc1` came in with a melting point of 194 to 195 °C.

Compound `CC(C(=S)NCN1CCOCC1)c1ccccn1` (centres undefined) yielded a melting point of 69 °C.

Compound `COc1ccc(-c2cncc(OC3SCC(O)C(O)C3O)c2)cc1F` (centres undefined) yielded a melting point of 200 °C.

The compound `CCOC(=O)N=P(c1ccccc1)(c1ccccc1)c1ccccc1CN(C)C` had a melting point of 103 to 105 °C.

Take `O=C(CBr)c1ccc(OCCO)cc1`: the melting point was 78 °C.

The compound `CCN[C@@H]1CN(C(=O)c2nn(C)c3ccccc23)C[C@@H]1C` (relative stereo) registered a melting point of 62 to 64 °C.

Turning to `Cc1ccc(OC2CCN(C(=O)C(=O)O)CC2)cc1`, the melting point lay in the range of 109 to 112 °C.

For `CCOC(=O)C1=Cc2cc(SC)ccc2OC1C(F)(F)F` (centres undefined), the melting point was in the range of 87.8 to 89.6 °C.

The compound `COc1ccc2c(c1)CN(CCc1ccc(N)cc1)CC2` registered a melting point of 82 to 84 °C.

Consider `O=c1c2c(CCc3ccc([N+](=O)[O-])cc3)n[nH]c2c2cccnc2n1-c1ccccc1`, for which the melting point lay in the range of 260 to 262 °C.

For `CC1Nc2cc(NC(=O)c3ccc(-c4ccccc4)cc3)ccc2N1C` (centres undefined), the melting point was 272 to 274 °C.

Compound `CCOC(=O)Cc1cc(Cl)cc(C(=O)c2ccc(Br)cc2)c1N` gave a melting point of 92 to 94 °C.

The compound `O=C(O)CNCCn1nc(-c2c(-c3ccccc3)nn3ccccc23)ccc1=O` yielded a melting point of 230 to 232 °C.

`CCCCCCOc1cccc(N2CC(=O)NC(=O)N2)c1` displayed a melting point of 161 to 163 °C.

In the case of `O=[N+]([O-])c1cccnc1N1CCNCC1`, the melting point lay in the range of 79 to 82 °C.

Turning to `CC1COC2(CCN(c3nc(=O)c4cc(C#N)cc([N+](=O)[O-])c4s3)CC2)O1` (centres undefined), the melting point lay within 251 to 253 °C.

The compound `O=C(N[C@H]1CC[C@H](CCN2CCC(c3cccc4c3CCO4)CC2)CC1)c1ccc(Cl)cc1Cl` yielded a melting point of 188 °C.

`CC(=O)Nc1nc2ccc(S(=O)(=O)n3c(CCCC(=O)O)cc4cc(Cl)ccc43)cc2s1` showed a melting point greater than 250 °C.

`CCCCCCCCOC(=O)C(=C1SCCCS1)c1cccc(C(F)(F)F)c1` had a melting point of 49 °C.

For `CC(=O)Nc1cnc(C2OCCO2)cc1C`, the melting point fell in the range of 98 to 99 °C.

In turn, `COC1(c2cc(F)cc(Sc3ccc(/C(C)=N/O)c(OCc4ccccc4)c3)c2)CCOCC1` displayed a melting point of 130 to 131 °C.

`NC(=O)c1c(N)cccc1OCCO`: the melting point lay within 149 to 151 °C.

Regarding `C[C@@H]1CN(CCCn2c3ccccc3c3ccccc32)C[C@H](C)N1`, the melting point was in the range of 107 to 109 °C.

`O=C(O)c1cc(C(F)(F)F)cc(F)c1F` gave a melting point of 94 to 96 °C.

For `O=S(=O)(Nc1onc(-c2ccccc2)c1Br)c1ccccc1`, the melting point is 113 to 115 °C.

As to `O=S(=O)(c1ccccc1)c1ncc(C(F)(F)F)cc1F`, the melting point lay in the range of 82 to 83 °C.

`CN1Cc2c(C(N)=NO)ncn2-c2cccc(Br)c2C1=O`: the melting point was in the range of 265 to 266 °C.
